# Results as given in ChEMBL document CHEMBL1147300, “Plant antiviral agents, VI. Isolation of antiviral phenolic glucosides from Populus cultivar Beaupre by droplet counter-current chromatography” (1989).
# Active and inactive are the calls of the source. The calls are words filed in the database; no cut-off is given here.
# Columns and labels:
# [1] = test system: Measles morbillivirus; test: Antiviral activity against Measles virus infected in african green monkey Vero cells assessed as ratio of viral titer in absence to presence of compound at 500 ug/ml by 50% endpoint titration technique; format: functional, organism-based
# [2] = test system: Enterovirus C; test: Antiviral activity against Poliovirus infected in african green monkey Vero cells assessed as ratio of viral titer in absence to presence of compound at 5 ug/ml by 50% endpoint titration technique; format: functional
# [3] = test system: Human alphaherpesvirus 1; test: Antiviral activity against Herpes simplex virus type 1 infected in african green monkey Vero cells assessed as ratio of viral titer in absence to presence of compound at 500 ug/ml by 50% endpoint titration technique; format: functional, organism-based
# [4] = test system: Coxsackievirus; test: Antiviral activity against Coxsackievirus infected in african green monkey Vero cells assessed as ratio of viral titer in absence to presence of compound at 5 ug/ml by 50% endpoint titration technique; format: functional
# [5] = test system: Semliki Forest virus; test: Antiviral activity against Semliki forest virus infected in african green monkey Vero cells assessed as ratio of viral titer in absence to presence of compound at 500 ug/ml by 50% endpoint titration technique; format: functional, organism-based
# [6] = test system: Trichophyton rubrum; test: Antifungal activity against Trichophyton rubrum at 500 ug/ml; format: functional, organism-based
# [7] = test system: Aspergillus niger; test: Antifungal activity against Aspergillus niger at 500 ug/ml; format: functional, organism-based
# [8] = test system: Coxsackievirus; test: Antiviral activity against Coxsackievirus infected in african green monkey Vero cells assessed as ratio of viral titer in absence to presence of compound at 500 ug/ml by 50% endpoint titration technique; format: functional, organism-based
# [9] = test system: Enterovirus C; test: Antiviral activity against Poliovirus infected in african green monkey Vero cells assessed as ratio of viral titer in absence to presence of compound at 25 ug/ml by 50% endpoint titration technique; format: functional
# [10] = test system: Trichophyton mentagrophytes; test: Antifungal activity against Trichophyton mentagrophytes at 500 ug/ml; format: functional, organism-based
# [11] = test system: Microsporum canis; test: Antifungal activity against Microsporum canis at 500 ug/ml; format: functional, organism-based
# [12] = test system: Semliki Forest virus; test: Antiviral activity against Semliki forest virus infected in african green monkey Vero cells assessed as ratio of viral titer in absence to presence of compound at 50 ug/ml by 50% endpoint titration technique; format: functional
Structure (SMILES),Activity [1],Ratio [2],Activity [3],Ratio [4],Activity [5],Activity [6],Activity [7],Activity [8],Ratio [9],Activity [10],Activity [11],Ratio [12]
COc1c(-c2ccc(O)c(O)c2)oc2cc(O)cc(O)c2c1=O [3-O-METHYLQUERCETIN],inactive,100000000,inactive,10000000,inactive,–,–,–,–,–,–,–
OCc1ccccc1O[C@@H]1O[C@H](CO)[C@@H](O)[C@H](O)[C@H]1O [SALICIN],inactive,–,inactive,–,inactive,inactive,inactive,inactive,1000,inactive,inactive,–
O=C(OCc1cc(O)ccc1O[C@@H]1O[C@H](CO)[C@@H](O)[C@H](O)[C@H]1O)c1ccccc1 [SALIREPOSIDE],inactive,–,inactive,–,–,inactive,inactive,inactive,10000,inactive,inactive,10000
